{"source": "patent US11357809B2", "about": "“Herbal preparation for stimulation of hair growth, control of hair fall, dandruff and infections thereof using Ageratum spp” (GE Nutrients, Inc., priority 2019, dated 2022)", "key": {"5-alpha-reductase enzyme": {"test_system": "5-alpha-reductase enzyme", "conditions": "constituents of Ageratum spp. extracts; no test described; cited from earlier work"}, "bovine corneas": {"test_system": "bovine corneas", "assay": "Bovine Corneal Opacity and Permeability assay (ocular irritation)", "text": "SUMMARY: This test was designed to assess the ocular irritation potential of a non-surfactant, liquid article such as Ageratum conyzoides extract. The test is a modification of that described by Gautheron, et. al. (“Bovine Corneal Opacity and Permeability Test: An In Vitro Assay of Ocular Irritancy” Fund. Appl. Toxicol. 18:442-449 (1992)), and Vanparys, et al. (“Evaluation of the bovine opacity-permeability assay as an in vitro alternative to the Draize eye irritation test” Toxicol. In Vitro 7:471-76 (1994)).\nBovine eyes were obtained by this facility from a local abattoir. The eyes were transported in an appropriate container containing Hank's balanced salt solution (HBSS, Sigma Chemical Co., H-1387). Transportation and storage of the eyes was at approximately 21° C. (70° F.). The eyes were used the day of their harvest and transport.\nUpon test initiation, the iris and the lens were removed and the corneas were placed in the bovine cornea holders. The endothelial surface was applied to the O-ring of the posterior part of the holder. The anterior part of the holder was placed against the epithelial side of the cornea. The two sides of the holder were screwed together. The bovine holders' components were then filled with pre-warmed Eagle's Minimum Essential Media (EM EM, Sigma Chemical Co., M-3024) with 1% Fetal Bovine Serum (FBS, American Type Culture Collection) at approximately 32° C.±2° C. (90° F.±4° F.). The posterior chamber was filled first. The corneas were incubated for approximately one hour, in a 32° C.±2° C. (90° F.±4° F.) water bath. This allowed for the pre-equilibration of the corneas to the external medium.\nAfter the pre-equilibration period, media from both of the chamber of the cassettes was aspirated, with the anterior chamber being aspirated first. Each chamber was then refilled with fresh EMEM, with the posterior chamber being filled first. Initial opacity readings were taken and recorded. Corneas with initial readings greater than […] were not used. Three corneas were assigned to each test and control article. The corneas with the lowest readings were used as the negative controls.\nThe test article and the positive control article (ethanol) and the negative control article (physiological saline) were each tested at 100%.\nA volume of 0.75 milliliters of the appropriate article, pre-warmed to 32° C.±2° C. (90° F.±4° F.), was introduced into the anterior chamber of the appropriate cassettes. The anterior chambers were then plugged and turned to a horizontal position. They were then rotated slightly, so that the article uniformly covered each cornea. The cassettes were incubated for 10 minutes at 32° C.±2° C. (90° F.±4° F.), in a water bath.\nThe anterior chambers of each cassette were then refilled with fresh EMEM via syringe. After refilling, the chambers were again plugged. All corneas were then incubated for 2 hours at approximately 32° C.±2° C. (90° F.±4° F.), in a water bath.\nAfter this 2 hour incubation period, all compartments were emptied and refilled with fresh EMEM. Each holder was individually placed in the “positive” compartment, while the “negative” compartment was left empty. The glass portion of each holder was dried prior to the reading. The opacity of each cornea was taken and recorded. The corneas were also observed grossly. Any unusual findings, such as opaque spots, were recorded.\nAfter the opacity readings were completed, the medium was removed from the anterior chambers. Either a suitable pipette tip or a flat ended needle was used for this procedure. One milliliter of 6 mg/ml fluorescein (Sodium Fluorescein, Sigma-Aldrich, F-637 in Dulbecco's Phosphate Buffered Saline (DPBS Sigma-Aldrich) pH approximately 7.5) solution was added to each of the anterior chambers. A micro pipette was used for this procedure.\nAfter the fluorescein solution was added to each anterior compartment, the compartments were plugged. The cassettes were then incubated, in a horizontal position, for 90 minutes at 32° C.±2° C."}, "[1]": {"conditions": "individual cornea, negative control average subtracted"}, "[2]": {"conditions": "mean of three corneas, article at 100%"}}, "note": "Several values for one entry are separate records, joined by “and”; a condition that tells them apart may be missing. Identical values can stand only once.", "data": [{"smiles": "CCCCC/C=C\\C/C=C\\CCCCCCCC(=O)O", "note": "[9,12-octadecadienoic acid (Z,Z)-]", "values": [{"measurement": "identified as 5-alpha-reductase inhibitor", "setting": "5-alpha-reductase enzyme", "result": "5-alpha-reductase inhibitors"}]}, {"smiles": "CCO", "note": "[+Control, Ethanol]", "values": [{"measurement": "Difference (terminal minus initial opacity)", "setting": "bovine corneas; individual cornea, article at 100%", "result": "51 and 45 and 54"}, {"measurement": "Terminal Opacity", "setting": "bovine corneas; individual cornea, article at 100%, 10 minute exposure, 2 hour incubation", "result": "56 and 46 and 55"}, {"measurement": "Initial Opacity", "setting": "bovine corneas; individual cornea, baseline reading before exposure", "result": "2 and 1 (2×)"}, {"measurement": "Optical Density490", "setting": "bovine corneas; individual cornea, fluorescein permeability, 90 minutes", "result": "1.239 and 0.662 and 1.663"}, {"measurement": "Corrected Corneal Opacity", "setting": "bovine corneas; [1]", "result": "48.3 and 42.3 and 51.3"}, {"measurement": "Corrected OD490", "setting": "bovine corneas; [1]", "result": "1.233 and 0.656 and 1.657"}, {"measurement": "In Vitro Score", "setting": "bovine corneas; individual cornea, Corrected Corneal Opacity + 15 x Corrected OD490", "result": "65.8 and 52.5 and 76.2"}, {"measurement": "Mean Corrected OD490", "setting": "bovine corneas; mean of three corneas", "result": 1.182}, {"measurement": "Average In Vitro Score", "setting": "bovine corneas; [2]", "result": 65.0}, {"measurement": "Mean Corrected Corneal Opacity", "setting": "bovine corneas; [2]", "result": 47.3}]}, {"smiles": "CC/C=C\\C/C=C\\C/C=C\\CCCCCCCC(=O)O", "note": "[Alpha-linolenic acid]", "values": [{"measurement": "identified as 5-alpha-reductase inhibitor", "setting": "5-alpha-reductase enzyme", "result": "5-alpha-reductase inhibitors"}]}, {"smiles": "CCCCCCCCCCCCCCCC(=O)O", "note": "[Hexadecanoic acid]", "values": [{"measurement": "identified as 5-alpha-reductase inhibitor", "setting": "5-alpha-reductase enzyme", "result": "5-alpha-reductase inhibitors"}]}, {"smiles": "O=C1CCc2ccccc2O1", "note": "[Hydrocoumarin]", "values": [{"measurement": "identified as 5-alpha-reductase inhibitor", "setting": "5-alpha-reductase enzyme", "result": "5-alpha-reductase inhibitors"}]}]}
